Test results reported in the NIST ThermoML archive (doi:10.1021/je7003758).

Assay: xn = mol fraction of the nth substance listed
Details: 298.15 K, Liquid

CCCCCCCCCl [1-chlorooctane] + CN1CCCC1=O
mass density [kg/m3]
Details | x2 = 0.0969 | x2 = 0.2014 | x2 = 0.3097 | x2 = 0.4076 | x2 = 0.5021 | x2 = 0.6022 | x2 = 0.7005 | x2 = 0.8007 | x2 = 0.9008
100 kPa | 878 | 888.8 | 901.2 | 913.6 | 926.9 | 942.5 | 959.8 | 979.6 | 1002.2
500 kPa | 878.3 | 889.1 | 901.5 | 913.9 | 927.2 | 942.8 | 960 | 979.8 | 1002.4
1000 kPa | 878.6 | 889.4 | 901.9 | 914.3 | 927.5 | 943.1 | 960.3 | 980.1 | 1002.7
1500 kPa | 879 | 889.8 | 902.3 | 914.6 | 927.8 | 943.4 | 960.6 | 980.4 | 1003
2000 kPa | 879.4 | 890.2 | 902.5 | 914.9 | 928.2 | 943.7 | 960.9 | 980.7 | 1003.2
2500 kPa | 879.7 | 890.6 | 902.9 | 915.2 | 928.5 | 944.1 | 961.2 | 981 | 1003.5
2900 kPa | – | – | – | – | – | 944.4 | – | – | –
3000 kPa | 880.2 | 890.9 | 903.3 | 915.6 | 928.8 | – | 961.6 | 981.3 | 1003.8
3400 kPa | 880.5 | – | – | – | – | – | – | – | –
3500 kPa | – | 891.3 | 903.7 | 916 | 929.1 | 944.7 | 961.8 | 981.6 | 1004.1
4000 kPa | 880.8 | 891.6 | 904 | 916.3 | 929.5 | 945 | 962.2 | 981.9 | 1004.4
4400 kPa | – | – | – | 916.6 | – | – | – | – | –
4500 kPa | 881.2 | 892 | 904.4 | – | 929.8 | 945.3 | 962.4 | 982.2 | 1004.6
5000 kPa | 881.6 | 892.3 | 904.7 | 917 | 930.2 | 945.7 | 962.8 | 982.5 | 1004.9
5500 kPa | 882 | 892.7 | 905 | 917.3 | 930.4 | 946 | 963.1 | 982.8 | 1005.2
5900 kPa | – | – | – | – | 930.8 | – | – | – | –
6000 kPa | 882.3 | 893.1 | 905.4 | 917.6 | – | 946.3 | 963.4 | 983.1 | 1005.5
6500 kPa | 882.7 | 893.4 | 905.8 | 917.9 | 931.1 | 946.6 | 963.7 | 983.3 | 1005.8
7000 kPa | 883.1 | 893.8 | 906.1 | 918.4 | 931.5 | 946.9 | 964 | 983.6 | 1006.1
7400 kPa | 883.4 | – | – | – | – | – | – | – | –
7500 kPa | – | 894.1 | 906.4 | 918.6 | 931.8 | 947.2 | 964.3 | 983.9 | 1006.4
7900 kPa | 883.7 | – | – | – | – | – | – | – | –
8000 kPa | – | 894.4 | 906.7 | 918.9 | 932.1 | 947.5 | 964.6 | 984.2 | 1006.6
8500 kPa | 884.1 | 894.8 | 907 | 919.2 | 932.5 | 947.8 | 964.9 | 984.5 | 1007
9000 kPa | 884.4 | 895.1 | 907.4 | 919.6 | 932.8 | 948.1 | 965.2 | 984.8 | 1007.2
9500 kPa | 884.8 | 895.5 | 907.8 | 920 | 933.1 | 948.4 | 965.5 | 985.1 | 1007.5
9900 kPa | – | – | – | – | – | – | – | 985.4 | –
10000 kPa | 885.3 | 895.9 | 908.1 | 920.4 | 933.5 | 948.8 | 965.9 | – | 1007.8
10400 kPa | – | – | – | – | – | – | – | – | 1008
10500 kPa | 885.6 | 896.2 | 908.5 | 920.7 | 933.8 | 949.1 | 966.1 | 985.7 | –
10900 kPa | – | – | – | – | – | – | – | 986 | –
11000 kPa | 886 | 896.5 | 908.8 | 921.1 | 934.2 | 949.5 | 966.5 | – | 1008.3
11400 kPa | – | – | – | – | – | – | 966.7 | – | –
11500 kPa | 886.3 | 896.9 | 909.1 | 921.3 | 934.5 | 949.7 | – | 986.3 | 1008.6
11900 kPa | 886.6 | – | – | – | – | – | – | – | –
12000 kPa | – | 897.3 | 909.5 | 921.6 | 934.8 | 950.1 | 967 | 986.5 | 1008.8
12500 kPa | 887 | 897.6 | 909.8 | 922 | 935.1 | 950.4 | 967.3 | 986.8 | 1009.2
12900 kPa | – | – | – | – | – | 950.6 | – | – | –
13000 kPa | 887.4 | 897.9 | 910.1 | 922.3 | 935.4 | – | 967.6 | 987.1 | 1009.4
13500 kPa | 887.7 | 898.3 | 910.4 | 922.6 | 935.7 | 950.9 | 967.9 | 987.4 | 1009.7
13900 kPa | – | 898.5 | – | – | – | – | – | – | –
14000 kPa | 888.1 | – | 910.8 | 922.9 | 936 | 951.2 | 968.2 | 987.7 | 1009.9
14400 kPa | – | 898.9 | – | – | – | – | – | – | –
14500 kPa | 888.4 | – | 911.1 | 923.3 | 936.3 | 951.5 | 968.4 | – | 1010.1
14600 kPa | – | – | – | – | – | – | – | 988 | –
14900 kPa | – | – | – | – | – | – | – | – | 1010.4
15000 kPa | 888.7 | 899.2 | 911.4 | 923.5 | 936.6 | 951.8 | 968.8 | 988.2 | –
15400 kPa | – | 899.5 | – | – | – | – | – | – | –
15500 kPa | 889 | – | 911.7 | 923.9 | 936.9 | 952.1 | 969 | 988.4 | 1010.7
15900 kPa | – | – | – | – | 937.2 | – | 969.3 | – | –
16000 kPa | 889.4 | 899.9 | 912.1 | 924.2 | – | 952.4 | – | 988.7 | 1011
16500 kPa | 889.7 | 900.3 | 912.4 | 924.5 | 937.5 | 952.7 | 969.6 | 988.9 | 1011.2
17000 kPa | – | 900.6 | 912.8 | 924.9 | 937.8 | 953 | 970 | 989.2 | 1011.5
17100 kPa | 890.1 | – | – | – | – | – | – | – | –
17500 kPa | 890.4 | 900.9 | 913.1 | 925.2 | 938.1 | 953.2 | 970.2 | 989.5 | 1011.7
18000 kPa | 890.7 | 901.2 | 913.4 | 925.5 | 938.4 | 953.5 | 970.4 | 989.7 | 1012
18500 kPa | 891.1 | 901.5 | 913.7 | 925.7 | 938.7 | 953.8 | 970.8 | 990 | 1012.2
19000 kPa | 891.4 | 901.9 | 914.1 | 926.1 | 939.1 | 954.2 | 971 | 990.5 | 1012.5
19400 kPa | – | 902.2 | – | 926.4 | – | – | 971.4 | – | –
19500 kPa | 891.7 | – | 914.4 | – | 939.3 | 954.5 | – | 990.7 | 1012.8
20000 kPa | 892.1 | 902.6 | 914.7 | – | 939.8 | 954.8 | 971.7 | – | 1013.2
20100 kPa | – | – | – | 926.8 | – | – | – | 991 | –
